Legend:
human TLR7 = target: T1, human TLR7 (Homo sapiens, UniProt Q9NYK1); assay: Agonistic activity on human TLR7 in HEK-Blue hTLR7 cell line (QUANTI-Blue reporter); type: cell-based; conditions: HEK-Blue hTLR7 cells, 16-22 h incubation, absorption at 630 nm; read-out: EC50 value of the agonistic effect on human TLR7
T1 construct: host or cells: HEK-Blue hTLR7 (HEK293-derived reporter cells)
T1 sequence (Q9NYK1 27-1049): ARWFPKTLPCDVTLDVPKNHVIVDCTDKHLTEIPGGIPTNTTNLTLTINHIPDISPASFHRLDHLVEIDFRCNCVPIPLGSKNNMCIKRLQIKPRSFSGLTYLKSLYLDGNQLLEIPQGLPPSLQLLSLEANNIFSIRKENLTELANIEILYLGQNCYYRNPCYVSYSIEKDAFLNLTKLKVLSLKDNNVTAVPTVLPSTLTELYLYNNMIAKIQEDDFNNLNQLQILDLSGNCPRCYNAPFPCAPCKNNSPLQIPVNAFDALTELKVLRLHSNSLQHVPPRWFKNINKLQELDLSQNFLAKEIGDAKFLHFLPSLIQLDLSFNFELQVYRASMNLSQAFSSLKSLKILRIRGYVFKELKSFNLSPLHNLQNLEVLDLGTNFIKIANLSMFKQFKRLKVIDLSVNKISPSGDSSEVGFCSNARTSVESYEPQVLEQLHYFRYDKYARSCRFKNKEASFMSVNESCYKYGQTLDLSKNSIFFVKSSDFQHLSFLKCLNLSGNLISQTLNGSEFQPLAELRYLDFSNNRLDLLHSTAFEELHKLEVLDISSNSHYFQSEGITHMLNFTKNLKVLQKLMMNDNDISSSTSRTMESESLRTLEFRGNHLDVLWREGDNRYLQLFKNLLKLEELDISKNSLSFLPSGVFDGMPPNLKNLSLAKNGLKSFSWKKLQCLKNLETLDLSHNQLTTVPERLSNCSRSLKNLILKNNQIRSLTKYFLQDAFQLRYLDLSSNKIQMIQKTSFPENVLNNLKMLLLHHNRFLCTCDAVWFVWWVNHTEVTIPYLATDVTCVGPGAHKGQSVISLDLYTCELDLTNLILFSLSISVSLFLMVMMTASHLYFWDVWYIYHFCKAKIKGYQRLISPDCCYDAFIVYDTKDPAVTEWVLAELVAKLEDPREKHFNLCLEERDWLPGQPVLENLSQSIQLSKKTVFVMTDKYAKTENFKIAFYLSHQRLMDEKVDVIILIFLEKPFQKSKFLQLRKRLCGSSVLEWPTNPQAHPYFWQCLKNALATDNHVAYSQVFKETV
Description: The TLR7 agonistic activity of the compounds of the invention in HEK-Blue™ hTLR7 cell line with stable expression of human TLR7 were assayed using the following method: • 1. Weighed the test compounds and prepared stock solutions with DMSO (Sigma) at a concentration of 10 mM. […] The highest concentration was 1 mM. • 2. The test compounds and DMSO control were diluted 10-fold in DPBS buffer (Gibco) and then added to a 96-well cell culture plate (Corning) at a volume of 20 μL/well. • 3. HEK-Blue™ hTLR7 cells (Invivogen) were digested with cell separation solution (Gibco), and counted (TC-20 cell counter, Bio-rad). Cells were diluted to 4.4E5/ml using DMEM cell medium (Gibco). Added the cells to a 96-well cell culture plate at a volume of 180 μL/well. The cells were incubated for 16-22 h at 37° C. in a 5% CO2 incubator. • 4. Prepared QUANTI-Blue detection reagent (Invivogen), and added into a new 96-well plate at a volume of 180 μL/well. Twenty μL of cell culture supernatant was transferred from the cell culture plate and added to the 96-well plate and incubated at 37° C. for 1-3 hours. • 5. Neo2 multifunctional microplate reader (Bio-Tek) was used to measure the optical absorption at 630 nm, and the EC50 was calculated by GraphPad Prism.
The agonistic effect of the compounds of the invention on human TLR7 can be determined by the above experiments, and the measured EC50 value is shown in Table 1.

[1] = test system: human peripheral blood mononuclear cells; assay: IFN-α production by human peripheral blood mononuclear cells stimulated by compounds (ELISA); type: cell-based; conditions: human PBMC, about 8 hours, supernatant ELISA
Description: • 1. The frozen human peripheral blood mononuclear cells (Miaotong Biotechnology Co., LTD., PB010C) were dissolved in water bath at 37° C. After counting, the cells were diluted to 0.2M/mL, and 150 uL/well was added to the 96-well cell culture plate, and the cells were incubated for 40 hours. • 2. The test compounds were weighed and prepared with DMSO at a concentration of 10 mM. DMSO was used to dilute the test compounds by a 10-fold gradient, with a total of four concentration gradients. The highest concentration was 400 μM. • 3. The test compounds, DMSO control and positive controls were diluted 100 times with cell culture medium (RPMI 1640 cell medium, Gibco), and 50 μL was added to 96-well cell culture plates. • 4. The cells were incubated at 37° C. for about 8 hours, and the supernatant was collected by centrifugation. The level of IFN-α in the supernatant was determined by ELISA (IFN-α ELISA kit, Dakewe). • 5. Light absorption at 450 nm was measured by microplate reader, and IFN-α level in culture supernatant was quantified according to the standard curve.

Structure (SMILES)	EC50 (human TLR7) [nM]	IFN-α concentration post stimulation ([1]; compound 0.1 nM) [pg/mL]	IFN-α concentration post stimulation ([1]; compound 1 nM) [pg/mL]	IFN-α concentration post stimulation ([1]; compound 10 nM) [pg/mL]
CC(C)(C(=O)O)N1CCc2c3cc(cc2C1)Cn1c(=O)[nH]c2c(N)nc(nc21)OCCCCC3 [Compound I-26]	105	12	11	96
CC(C)N1CCc2c3cc(cc2C1)Cn1c(=O)[nH]c2c(N)nc(nc21)OCCCCC3 [Compound I-35]	10	251	2767	2776
Nc1nc2nc3c1[nH]c(=O)n3Cc1cc(c3c(c1)CN(C1CCC1)CC3)CCCCCO2 [Compound I-37]	10	428	1973	2078
COCCN1CCc2c3cc(cc2C1)Cn1c(=O)[nH]c2c(N)nc(nc21)OCCCCC3 [Compound I-48]	11	13	2431	2784
CC(C)N1CCc2cc3cc(c2C1)CCCCCOc1nc(N)c2[nH]c(=O)n(c2n1)C3 [Compound I-50]	2	1509	2615	2173
Nc1nc2nc3c1[nH]c(=O)n3Cc1cc(c3c(c1)CCN(C1CCC1)C3)CCCCCO2 [Compound I-51]	6	530	2759	2472
Nc1nc2nc3c1[nH]c(=O)n3Cc1cc3c(c(c1)OCCCCO2)CCN(C1CCC1)C3 [Compound I-60]	14	12	2412	3127
Nc1nc2nc3c1[nH]c(=O)n3Cc1ccc(OC3CCNCC3)c(c1)C/C=C/CCO2 [Reference 1, reference compound]	15	9	74	159
Nc1nc2nc3c1[nH]c(=O)n3Cc1ccc(Oc3ccc(CNC4CC4)cc3)c(c1)C/C=C\CCO2 [Reference 2, reference compound]	31	8	161	558
Nc1nc2nc3c1[nH]c(=O)n3Cc1ccc(O)c(c1)C/C=C/CCO2 [Reference 3, reference compound]	41	8	9	284
CCCCOc1nc(N)c2c(n1)N(Cc1cccc(CN3CCCC3)c1)CC(=O)N2 [Vesatolimod, reference compound]	–	–	12	12

Source: patent publication US20240124486A1, “MACROCYCLIC TLR7 AGONIST, PREPARATION METHOD THEREFOR, PHARMACEUTICAL COMPOSITION AND USE THEREOF” (SHANGHAI VISONPHARMA CO., LTD., priority 2020, published 2024)
